Test results: EP2340832A1, “Morphinan-6-one compounds for the treatment or prevention of neurodegenerative diseases” (Universität Innsbruck, priority 2009, dated 2011)
pIC50, pKi: −log10 of the molar value. Like-named read-outs stand apart in the source and are kept apart here.

Columns and labels:
[1] = target: T1, electric eel AChE (EC 3.1.1.7) (Electrophorus electricus, UniProt O42275); assay: Spectrophotometric assay for AChE inhibitory activity (modified Ellman's method); type: biochemical
T1 construct: purchased Sigma-Aldrich, Germany

δ opioid receptors = target: T2, δ opioid receptors (Rattus norvegicus, UniProt P33533); assay: Opioid receptor binding assay, [3H][Ile5,6]deltorphin II, rat brain membranes; design: species or system Sprague-Dawley rat
T2 construct: Membrane fractions were prepared from Sprague-Dawley rat or guinea pig brains; from tissue; host or cells: Sprague-Dawley rat brain (without cerebella) membranes
Experimental: (§1) Briefly, brains without cerebella were homogenised on ice in 5 volumes of ice-cold 50 mM Tris-HCI buffer (pH 7.4) and diluted in 30 volumes of the same buffer. After centrifugation at 40,000 x g for 20 min at 4°C, the pellets were resuspended in 30 volumes of Tris-HCI buffer and incubated at 37 °C for 30 min (rat brain) or for 10 min (guinea pig brain). The centrifugation step was repeated and the final pellets were resuspended in 5 volumes of 50 mM Tris-HCI buffer (pH 7.4) containing 0.32 M sucrose to give a protein concentration of 4 - 6 mg/ml. Protein concentration was determined by the method of Bradford using bovine serum albumin as standard.
(§2) Binding experiments were performed in 50 mM Tris-HCI buffer (pH 7.4) in a final volume of 1 ml containing 0.3 - 0.5 mg protein and different concentrations of the compounds. […] Guinea pig brain membranes were incubated with [^3H]U69,593 (30 min, 30 °C). Non-specific binding was determined in the presence of 10 µM unlabeled naloxone. […] Inhibition constant (Ki) values were calculated from competition binding curves using GraphPad Prism (San Diego, CA, USA) program. The values are expressed as the mean ± S.E.M of 2-4 independent experiments, each performed in duplicate.
(§3) The morphinan-6-one compounds of the present invention were evaluated in in vitro receptor binding assays for their interaction abilities with µ, δ and k opioid receptors. […] The affinities of the compounds at k opioid receptors were determined by displacement of [^3H]U69,593 using guinea pig brain membranes.

k opioid receptors = target: T3, k opioid receptors (Cavia porcellus, UniProt P41144); assay: Opioid receptor binding assay, [3H]U69,593, guinea pig brain membranes
T3 construct: Membrane fractions were prepared from Sprague-Dawley rat or guinea pig brains; from tissue; host or cells: guinea pig brain (without cerebella) membranes
Experimental: as §1, §2, §3

δ receptor = target: T4, δ receptor (Rattus norvegicus, UniProt P33533); assay: [35S]GTPγS functional assay, rat brain membranes, δ receptor; type: biochemical, Sprague-Dawley rat
T4 construct: Membrane fractions were prepared from Sprague-Dawley rat or guinea pig brains; from tissue; host or cells: Sprague-Dawley rat brain (without cerebella) membranes
Experimental: (§4) Membrane fractions were prepared from Sprague-Dawley rat or guinea pig brains as described above. To determine binding of [^35S]GTPyS, rat or guinea pig brain membranes (10 µg of protein) were incubated for 60 min at 30 °C in Tris-EGTA buffer (50 mM Tris-HCl buffer, 3 mM MgCl2, 1 mM EGTA, […], pH 7.4) containing 30 µM GDP, 0.05 nM [^35S]GTPyS and appropriate concentrations of the respective compounds according to the present invention in a final volume of 1 ml. The reaction was terminated by vacuum filtration through Whatman GF/B glass fibre filters. Filters were washed three times with ice-cold 50 mM Tris-HCI buffer (pH 7.4) and the bound radioactivity was measured by liquid scintillation counting (Beckman Coulter™ LS6500). Basal activity was determined by subtracting the non-specific binding (measured in the presence of 100 µM unlabelled GTPyS) from the total binding (measured in the absence of the compound).
(§5) Stimulation produced by the compound is given as percentage of the basal activity (given as 100%). Functional data, EC50 (nM; half maximal effective concentration) and maximal stimulation Emax (% stimulation over basal level; maximal effective concentration), were calculated by using nonlinear regression analysis and sigmoidal curve fitting GraphPad Prism (San Diego, CA, USA) program. The values are expressed as the mean ± S.E.M of at least 3 independent experiments, each performed in triplicate. Statistical analysis was carried out using SPSS software (SPSS Inc., Chicago, lL, USA) and the Student T-test was used to compare different assay conditions. A ρ value < 0.05 was considered statistically significant.

K receptor = target: T5, K receptor (Cavia porcellus, UniProt P41144); type: biochemical, guinea pig
T5 construct: Membrane fractions were prepared from Sprague-Dawley rat or guinea pig brains; from tissue; host or cells: guinea pig brain (without cerebella) membranes

[2] = target: T6, σ receptors labelled by [^3H](+)-pentazocine (σ1) (Cavia porcellus, UniProt Q60492); assay: Sigma receptor binding assay, [3H](+)-pentazocine; design: species or system guinea pig
T6 construct: from tissue; host or cells: guinea pig brain membranes
Experimental: (§6) Filters were washed three times with 5 ml of ice-cold 10 mM Tris-HCI buffer (pH 8). The bound radioactivity was measured by liquid scintillation counting (Beckman Coulter™ LS6500). […] The values are expressed as the mean ± S.E.M of 2 - 4 independent experiments, each performed in duplicate.

[3] = target: σ receptors labelled by [^3H]DTG (σ1 + σ2); assay: Sigma receptor binding assay, [3H]DTG; conditions: read-out: IC50 ± SEM [^3H]DTG (σ1 + σ2); guinea pig brain membranes; compounds 1-5 tested up to 10 µM
Experimental: as §6

C57BL/6N female mice [4] = assay: Open field (locomotor activity); type: in vivo
Excerpt: Each mouse was used only once. […] . […] Thereafter it was replaced by the obturator.
The open field consisted of a transparent plastic box with white floor (41 x 41 x 41 cm) equipped with an automated activity monitoring system (True Scan, Coulbourn Instruments, Allentown, Pennsylvania, USA). The illumination at floor level was 150 lux. Mice were individually placed into the centre of the open field and their behaviours were tracked with the activity monitoring system. The time of locomotor activity, the overall distance travelled by the mice and the fraction of locomotor activity in the center area (center distance and center time) were monitored for 10 min. The arena was thoroughly cleaned with wet paper towels and dried at the end of each test.
Statistical analysis: All data from behavioural studies are shown as mean ± SEM. Statistical analysis was performed using the analysis of variance (ANOVA), followed by post hoc multiple comparisons Tukey-Kramer test, except comparison of alternation rates with the theoretical value of chance (defined as 50%) which was evaluated by Wilcoxon signed rank test. All statistical analyses were carried out by using the Graphpad Prism Program, version 4.0, Graphpad software, Inc.

[5] = system: extracellular ACh concentration in the nucleus accumbens; conditions: for 0AUC120 min (% increase x min) Mean ± SEM: 0 to 120 min; for Increase in ACh release (Peak increase as % of basal output): nucleus accumbens
C57BL/6N female mice [6] = assay: Object recognition task; conditions: for object recognition (memory): normal mice; for effect on scopolamine-induced impairment of object recognition: scopolamine-pretreated mice, dose not given
C57BL/6N female mice [7] = assay: T-maze continuous alternation
µ opioid receptor [8] = target: T7, µ opioid receptor (Rattus norvegicus, UniProt P33535); assay: Opioid receptor binding assay, [3H]DAMGO, rat brain membranes; design: Membrane fractions were prepared from Sprague-Dawley rat or guinea pig brains; from tissue; host or cells: Sprague-Dawley rat brain (without cerebella) membranes; species or system Sprague-Dawley rat
Experimental: as §1, §2, §3

µ opioid receptor [9] = target: T7, µ opioid receptor; assay: [35S]GTPγS functional assay, rat brain membranes, µ receptor; type: biochemical, Sprague-Dawley rat; design: Membrane fractions were prepared from Sprague-Dawley rat or guinea pig brains; from tissue; host or cells: Sprague-Dawley rat brain (without cerebella) membranes; conditions: rat brain membranes
Experimental: as §4, §5

[10] = system: frontal cortex synaptosomes; assay: ACh release from synaptosomes (15 mM K+-evoked [3H]-ACh release, superfusion); type: cell-based, male Sprague Dawley rats; conditions: 0.1 to 100 µM
Experimental: Preparation of synaptosomes: synaptosomes were prepared from brain frontal cortex of male Sprague Dawley rats (4 months old). The frontal cortex was rapidly dissected on ice and homogenized in 40 volumes of 0.32 M sucrose buffered at pH 7.4 with 0.01 M sodium phosphate. The homogenate was centrifuged at 1,000 g for 5 min. The crude synaptosomal pellet was obtained by centrifugation of the supernatant at 15,000 g for 20 min and was resuspended in 5 ml basal medium (125 mM Nacl, 3 mM KCI, 1.2 mM MgS04, 1.2 mM CaCl2, 1.0 mM NaH2PO4, 22 mM NaHCO3 and 10 mM glucose) which had been gassed with 95% O2 - 5% CO2 at 37 °C, pH 7.2 - 7.4.
Superfusion protocol: The synaptosomal suspension was incubated with [^3H]-choline (0.03 µM, 17.5x10^6 Bq/g) for 15 min at 37 °C. Then, the suspension was diluted (1:8) and aliquots were applied on filters in a continuous superfusion system with parallel chambers maintained at 37 °C. The media used for superfusion were basal medium and 15 mM K^+-containing stimulation medium. Both media were supplemented with ACh (1 µM) to facilitate the effectiveness of an allosteric potentiating ligand at the nicotine receptor and with atropine (0.1 µM) to block M2 presynaptic receptors. Synaptosomes were superfused with basal medium for 30 min to reach a constant outflow of [^3H]-ACh. Under these experimental conditions, the radioactivity released consisted largely of newly synthesized [^3H]-ACh. The K^+-stimulated release of [^3H]-ACh was determined in 2 subsequently collected fractions: 6 min basal release (superfusion with basal medium) and 6 min K^+-evoked release (superfusion for 1.5 min with 15 mM K^+-containing medium followed by […] basal medium). The test compounds galantamine, 4 and 2 were present in the superfusion medium concomitantly with 15 mM K^+ (for 1.5 min). Basal release of [^3H]-ACh (continuous superfusion with basal medium) was determined by collection of a 6 min sample followed by four subsequent 2 min samples. Aliquots of samples were mixed with scintillation liquid and the radioactivity quantified with a scintillation counter. The radioactivity bound to the filters was also measured.
Statistical analysis: The amount of [^3H]-ACh released in each sample was calculated as fraction of total synaptosomal tritium at the start of the respective collection period (tritium in the sample / sum of tritium in the respective fractions and in the synaptosomes on the filter). K^+-evoked release was expressed as percentage of basal release rate. Each n=1 represents the mean of an experiment with one synaptosomal preparation in at least 3 superfusion chambers. Statistical significance of group variances was calculated by one way ANOVA followed by Bonferroni's test.

[11] = scopolamine 0.033 µmol, compound 0.1 µmol i.c.v.

T7 sequence (P33535 whole entry): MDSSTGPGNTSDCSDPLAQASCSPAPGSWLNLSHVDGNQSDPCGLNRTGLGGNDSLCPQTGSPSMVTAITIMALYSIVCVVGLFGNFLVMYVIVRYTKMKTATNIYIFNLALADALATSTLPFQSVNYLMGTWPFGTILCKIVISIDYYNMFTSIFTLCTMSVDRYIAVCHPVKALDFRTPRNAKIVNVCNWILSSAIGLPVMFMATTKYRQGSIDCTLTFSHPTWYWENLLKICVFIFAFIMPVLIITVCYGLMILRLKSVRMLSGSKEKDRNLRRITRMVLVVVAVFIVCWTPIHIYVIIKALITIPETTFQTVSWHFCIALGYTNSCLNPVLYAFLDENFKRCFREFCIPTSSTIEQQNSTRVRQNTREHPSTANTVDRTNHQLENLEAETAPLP
T3 sequence (P41144 whole entry): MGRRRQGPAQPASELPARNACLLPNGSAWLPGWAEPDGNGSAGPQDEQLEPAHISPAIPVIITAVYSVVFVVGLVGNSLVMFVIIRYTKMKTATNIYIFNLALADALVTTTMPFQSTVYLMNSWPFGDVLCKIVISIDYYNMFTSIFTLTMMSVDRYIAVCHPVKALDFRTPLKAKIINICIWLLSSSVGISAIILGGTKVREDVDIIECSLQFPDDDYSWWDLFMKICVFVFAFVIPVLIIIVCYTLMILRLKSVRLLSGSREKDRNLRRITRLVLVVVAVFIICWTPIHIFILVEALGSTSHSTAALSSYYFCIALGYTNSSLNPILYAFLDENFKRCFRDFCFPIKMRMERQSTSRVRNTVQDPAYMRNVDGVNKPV
T5 sequence (P41144 whole entry): as above
T2 sequence (P33533 whole entry): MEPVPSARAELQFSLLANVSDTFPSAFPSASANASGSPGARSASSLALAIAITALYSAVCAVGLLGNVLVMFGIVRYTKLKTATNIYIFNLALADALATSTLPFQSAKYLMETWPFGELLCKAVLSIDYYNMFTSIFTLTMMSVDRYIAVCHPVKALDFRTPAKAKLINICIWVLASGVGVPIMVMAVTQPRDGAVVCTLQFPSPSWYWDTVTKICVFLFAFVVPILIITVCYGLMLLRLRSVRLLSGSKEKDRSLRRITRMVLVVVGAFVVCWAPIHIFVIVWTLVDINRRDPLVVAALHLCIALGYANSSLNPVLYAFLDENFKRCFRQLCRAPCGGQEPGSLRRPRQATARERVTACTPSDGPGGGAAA
T1 sequence (O42275 24-633): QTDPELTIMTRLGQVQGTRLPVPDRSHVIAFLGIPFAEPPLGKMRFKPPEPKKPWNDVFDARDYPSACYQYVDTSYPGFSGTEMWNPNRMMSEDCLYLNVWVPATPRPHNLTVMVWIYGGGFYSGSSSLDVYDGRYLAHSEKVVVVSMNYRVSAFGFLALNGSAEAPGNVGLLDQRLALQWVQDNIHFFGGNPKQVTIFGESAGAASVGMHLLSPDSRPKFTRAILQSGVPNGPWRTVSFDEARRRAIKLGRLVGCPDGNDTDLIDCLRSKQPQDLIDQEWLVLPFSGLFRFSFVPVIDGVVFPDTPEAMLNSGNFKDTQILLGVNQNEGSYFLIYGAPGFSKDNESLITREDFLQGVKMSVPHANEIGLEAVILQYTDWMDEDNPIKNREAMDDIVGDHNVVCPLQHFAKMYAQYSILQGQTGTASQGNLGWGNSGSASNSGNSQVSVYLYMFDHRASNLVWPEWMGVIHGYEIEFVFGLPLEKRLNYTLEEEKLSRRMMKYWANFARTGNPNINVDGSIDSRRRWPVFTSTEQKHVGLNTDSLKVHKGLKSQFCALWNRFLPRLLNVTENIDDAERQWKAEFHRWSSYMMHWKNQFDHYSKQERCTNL
T6 sequence (Q60492 whole entry): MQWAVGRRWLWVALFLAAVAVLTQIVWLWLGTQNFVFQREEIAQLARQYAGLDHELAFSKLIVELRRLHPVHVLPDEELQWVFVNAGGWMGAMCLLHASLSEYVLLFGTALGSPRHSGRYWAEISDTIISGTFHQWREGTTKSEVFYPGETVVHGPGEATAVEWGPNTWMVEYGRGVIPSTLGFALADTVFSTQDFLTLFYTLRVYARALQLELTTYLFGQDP
T4 sequence (P33533 whole entry): as the sequence (P33533 whole entry) above

C=CCN1CC[C@]23CC(=O)CC[C@@]2(OC)[C@H]1Cc1cccc(OC)c13 [Compound 5, 4,14-dimethoxy-N-allyl-morphinan-6-one]
pIC50 ([1]; 96-well microplate, 1% DMSO, read-out: AChE inhibitory activity IC50): 4.09
pKi (δ opioid receptors): 5.90
pKi (k opioid receptors): 6.48
[35S]GTPγS binding on co-incubation with naltrindole versus antagonist alone (δ receptor; 10 µM each): did not produce any significant increase
effect on [35S]GTPγS binding stimulated by SNC 80 (δ receptor; compound 10 µM, SNC 80 10 µM): did not cause any significant changes
effect on [35S]GTPγS binding stimulated by U69,593 (K receptor): no significant effect
[35S]GTPγS binding on co-incubation with Nor-BNI versus antagonist alone (K receptor; 10 µM each, guinea pig brain membranes): did not produce any significant increase
[35S]GTPγS binding in the presence of the compound alone (K receptor; guinea pig brain membranes, compared with U69,593): no increase
pIC50 [2]: < 5.00
pIC50 [3]: < 5.00
general locomotion in the open field (move distance, move time) (C57BL/6N female mice [4]; 0.1 µmol i.c.v., 10 min): did not influence
fraction of locomotor activity in the central zone (C57BL/6N female mice [4]; dose not given): did not influence
effect on ACh in the superfusate (in words) ([5]; 0.5 µmol i.c.v.): did not increase brain ACh
effect on ACh in the superfusate (in words) ([5]; 1 µmol i.c.v.): short peak increase
0AUC120 min (% increase x min) Mean ± SEM ([5]; Dose 1 µmol i.c.v.): 158 ± 111 % increase x min
Increase in ACh release (Peak increase as % of basal output) ([5]; Dose 1 µmol i.c.v.): 51 ± 43%
object recognition (memory) (C57BL/6N female mice [6]; 0.1 µmol i.c.v.): increased the exploration ratio
effect on scopolamine-induced impairment of object recognition (C57BL/6N female mice [6]): ineffective
spontaneous alternation rate (C57BL/6N female mice [7]; normal mice, 0.1 µmol i.c.v.): did not influence alternation
effect on scopolamine-enhanced running time (C57BL/6N female mice [7]; [11]): further increased
effect on scopolamine-impaired alternation (C57BL/6N female mice [7]; [11]): had no effect
pKi (µ opioid receptor [8]): 7.17
binding to opioid receptor µ (in words) (µ opioid receptor [8]): some µ opioid receptor affinity
selectivity among opioid receptor types (µ opioid receptor [8]; from binding, Table 3): moderate selectivity for the µ type
[35S]GTPγS binding on co-incubation with cyprodime versus antagonist alone (µ opioid receptor [9]; 10 µM each): did not produce any significant increase
effect on [35S]GTPγS binding stimulated by DAMGO (µ opioid receptor [9]; compound 10 µM, DAMGO 10 µM): significantly decreased
[35S]GTPγS binding in the presence of the compound alone (µ opioid receptor [9]; compared with DAMGO): no increase

O=CN1CC[C@]23c4c5cccc4OC2C(=O)CC[C@H]3[C@H]1C5 (stereo in doubt) [Compound 3, 4,5-epoxy-N-formylmorphinan-6-one]
effect on K+-evoked ACh release in frontal-cortex synaptosomes [10]: did not influence ACh release
pIC50 [1]: 4.22
pKi (δ opioid receptors): < 5.00
pKi (δ opioid receptors; read-out: Opioid binding affinities Ki δ receptor, [3H][Ile5,6]deltorphin II, rat brain membranes): < 5.00
pKi (k opioid receptors): < 5.00
pKi (k opioid receptors; read-out: Opioid binding affinities Ki κ receptor, [3H]U69,593, guinea pig brain membranes): < 5.00
pIC50 [2]: < 5.00
pIC50 [3]: < 5.00
effect on ACh in the superfusate (in words) ([5]; 1 µmol i.c.v.): increased ACh release
effect on ACh in the superfusate (in words) ([5]; 2 µmol i.c.v.): did not influence ACh up to 160 min followed by a decline thereafter
0AUC120 min (% increase x min) Mean ± SEM ([5]; Dose 1 µmol i.c.v.): 410 ± 227 % increase x min
Increase in ACh release (Peak increase as % of basal output) ([5]; Dose 1 µmol i.c.v.): 123 ± 91 %
0AUC120 min (% increase x min) Mean ± SEM ([5]; Dose 2 µmol i.c.v.): 160 ± 140 % increase x min
Increase in ACh release (Peak increase as % of basal output) ([5]; Dose 2 µmol i.c.v.): 75 ± 73%
object recognition (memory) (C57BL/6N female mice [6]; 0.02 µmol i.c.v.): did not influence the object recognition
effect on scopolamine-induced impairment of object recognition (C57BL/6N female mice [6]): ineffective
pKi (µ opioid receptor [8]): < 5.00
pKi (µ opioid receptor [8]; read-out: Opioid binding affinities Ki µ receptor, [3H]DAMGO, rat brain membranes): < 5.00
